Measurements from patent publication US11000033B2, “Ketone or oxime compound, and herbicide” (NISSAN CHEMICAL CORPORATION, priority 2014, dated 2021).

Experiments:
Assay type in all cases: in vivo
rapeseed [1] = test: Test Example 5: effect on crop by foliage application, plastic box (symbol g); conditions: 320 g/ha, 3 weeks after application
Outline: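 Greenhouse culture at 25° C. to 30° C. followed spot-like sowing into sterilized diluvial soil, with seed covered by roughly 1.5 cm of soil.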

Scirpus juncoides [2] = test: Test Example 2: herbicidal activity, application during weed generation in submerged conditions (symbol B); conditions: Table 23; application herbicide amount 320 g/ha; grade 0-5 by criteria of Test Example 1
Outline: (§1)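 Read-out: herbicidal effect on each species rated on a visual scale 3 weeks after treatment. Plants were raised together from seed in flooded alluvial soil (4 cm water) at 25° C. to 30° C. and treated at one to two leaves by water-surface application of diluted emulsion.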

Monochoria vaginalis [3] = test: Test Example 2: herbicidal activity, application during weed generation in submerged conditions (symbol C); conditions: Table 23; application herbicide amount 320 g/ha; grade 0-5 by criteria of Test Example 1
Outline: as §1

Monochoria vaginalis [4] = test: Test Example 1: herbicidal activity, application before weed generation in submerged conditions (symbol C); conditions: application herbicide amount 320 g/ha
Outline: (§2)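 Paddy pre-emergence test. Formulated emulsion, water-diluted to a predetermined rate, is applied to floodwater on sowing day; rice transplanted at 2.5 leaves. Effect read at 3 weeks on a 0–5 herbicidal-ratio scale.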

rapeseed [5] = test: Test Example 4: effect on crop by soil treatment (symbol g); conditions: application herbicide amount 320 g/ha
Outline: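 Crop seeds, among them rice, wheat, beet and rapeseed, were sown in sterilized diluvial soil and covered with about 1.5 cm of soil. Boxes were kept in a greenhouse at 25° C. to 30° C. for plant growth.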

Lolium multiflorum Lam. = test: Test Example 5: herbicidal effect by foliage application, plastic box (symbol K); conditions: 320 g/ha, 3 weeks after application
Outline: (§3)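 Effect is rated 3 weeks after a foliar spray of water-diluted emulsion concentrate at a predetermined herbicide amount. Plants had grown 14 days in a 25° C. to 30° C. greenhouse from seed in sterilized diluvial soil.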

Digitaria ciliaris = test: Test Example 4: herbicidal effect by soil treatment (symbol F); conditions: application herbicide amount 320 g/ha
Outline: (§4)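 Seeds were sown in sterilized diluvial soil, covered with about 1.5 cm of soil, and the soil surface was sprayed with a water-diluted emulsion of the compound at a predetermined rate. Plants grew in a greenhouse at 25° C. to 30° C.; effects were scored visually 3 weeks after application.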

Amaranthus retroflexus = test: Test Example 5: herbicidal effect by foliage application, plastic box (symbol N); conditions: 320 g/ha, 3 weeks after application
Outline: as §3

Setaria viridis = test: Test Example 5: herbicidal effect by foliage application, plastic box (symbol G); conditions: 320 g/ha, 3 weeks after application
Outline: as §3

[6] = test system: Echinochloa crus-galli var. crus-galli; test: Test Example 4: herbicidal effect by soil treatment (symbol H); conditions: application herbicide amount 320 g/ha
Outline: as §4

Veronica persica = test: Test Example 5: herbicidal effect by foliage application, plastic box (symbol R); conditions: 320 g/ha, 3 weeks after application
Outline: as §3

Apera spica-venti = test: Test Example 5: herbicidal effect by foliage application, plastic box (symbol L); conditions: 320 g/ha, 3 weeks after application
Outline: as §3

Scirpus juncoides [7] = test: Test Example 1: herbicidal activity, application before weed generation in submerged conditions (symbol B); conditions: application herbicide amount 320 g/ha
Outline: as §2

SMILES	g: rapeseed, effect on crop (criteria of Test Example 1) (rapeseed [1])	Herbicidal effect grade, B: Scirpus juncoides (Scirpus juncoides [2])	Herbicidal effect grade, C: Monochoria vaginalis (Monochoria vaginalis [3])	Herbicidal effect grade, C: Monochoria vaginalis (Monochoria vaginalis [4])	Effect on crop grade, g: rapeseed (rapeseed [5])	K: Lolium multiflorum Lam., herbicidal effect (criteria of Test Example 1) (Lolium multiflorum Lam.)	Herbicidal effect grade, F: Digitaria ciliaris (Digitaria ciliaris)	N: Amaranthus retroflexus, herbicidal effect (criteria of Test Example 1) (Amaranthus retroflexus)	G: Setaria viridis, herbicidal effect (criteria of Test Example 1) (Setaria viridis)	Herbicidal effect grade, H: Echinochloa crus-galli var. crus-galli [6]	R: Veronica persica, herbicidal effect (criteria of Test Example 1) (Veronica persica)	L: Apera spica-venti, herbicidal effect (criteria of Test Example 1) (Apera spica-venti)	Herbicidal effect grade, B: Scirpus juncoides (Scirpus juncoides [7])
CON=C(C)CC1CC(O)=C(c2c(C)cc(-c3ccsc3)cc2C)C1=O (stereo not drawn) [6-106]	5 (Herbicidal ratio of 90% or more (almost completely withered))	5 (Herbicidal ratio of 90% or more (almost completely withered))	4 (Herbicidal ratio of 70% or higher and lower than 90%)	4 (Herbicidal ratio of 70% or higher and lower than 90%)	3 (Herbicidal ratio of 40% or higher and lower than 70%)	5 (Herbicidal ratio of 90% or more (almost completely withered))	5 (Herbicidal ratio of 90% or more (almost completely withered))	0 (Herbicidal ratio of 5% or lower (almost no effect))	5 (Herbicidal ratio of 90% or more (almost completely withered))	5 (Herbicidal ratio of 90% or more (almost completely withered))	3 (Herbicidal ratio of 40% or higher and lower than 70%)	5 (Herbicidal ratio of 90% or more (almost completely withered))	5 (Herbicidal ratio of 90% or more (almost completely withered))
CON=C(C)CC1CC(OC(=O)C(C)CSC)=C(c2c(C)cc(-c3ccc(Cl)cc3)cc2C)C1=O (stereo not drawn) [6-086]	4 (Herbicidal ratio of 70% or higher and lower than 90%)	4 (Herbicidal ratio of 70% or higher and lower than 90%)	3 (Herbicidal ratio of 40% or higher and lower than 70%)	0 (Herbicidal ratio of 5% or lower (almost no effect))	4 (Herbicidal ratio of 70% or higher and lower than 90%)	5 (Herbicidal ratio of 90% or more (almost completely withered))	5 (Herbicidal ratio of 90% or more (almost completely withered))	0 (Herbicidal ratio of 5% or lower (almost no effect))	5 (Herbicidal ratio of 90% or more (almost completely withered))	5 (Herbicidal ratio of 90% or more (almost completely withered))	5 (Herbicidal ratio of 90% or more (almost completely withered))	5 (Herbicidal ratio of 90% or more (almost completely withered))	2 (Herbicidal ratio of 20% or higher and lower than 40%)
CON=C(C)CC1CC(O)=C(c2c(C)cc(-c3ccc(F)c(Cl)c3)cc2C)C1=O (stereo not drawn) [6-085]	5 (Herbicidal ratio of 90% or more (almost completely withered))	4 (Herbicidal ratio of 70% or higher and lower than 90%)	1 (Herbicidal ratio of 5% or higher and lower than 20%)	0 (Herbicidal ratio of 5% or lower (almost no effect))	4 (Herbicidal ratio of 70% or higher and lower than 90%)	5 (Herbicidal ratio of 90% or more (almost completely withered))	5 (Herbicidal ratio of 90% or more (almost completely withered))	3 (Herbicidal ratio of 40% or higher and lower than 70%)	5 (Herbicidal ratio of 90% or more (almost completely withered))	5 (Herbicidal ratio of 90% or more (almost completely withered))	4 (Herbicidal ratio of 70% or higher and lower than 90%)	5 (Herbicidal ratio of 90% or more (almost completely withered))	3 (Herbicidal ratio of 40% or higher and lower than 70%)
CON=C(C)CC1CC(OC(=O)N(C)C)=C(c2c(C)cc(C)cc2OC)C1=O (stereo not drawn) [6-109]	4 (Herbicidal ratio of 70% or higher and lower than 90%)	2 (Herbicidal ratio of 20% or higher and lower than 40%)	2 (Herbicidal ratio of 20% or higher and lower than 40%)	3 (Herbicidal ratio of 40% or higher and lower than 70%)	0 (Herbicidal ratio of 5% or lower (almost no effect))	5 (Herbicidal ratio of 90% or more (almost completely withered))	5 (Herbicidal ratio of 90% or more (almost completely withered))	4 (Herbicidal ratio of 70% or higher and lower than 90%)	5 (Herbicidal ratio of 90% or more (almost completely withered))	5 (Herbicidal ratio of 90% or more (almost completely withered))	1 (Herbicidal ratio of 5% or higher and lower than 20%)	5 (Herbicidal ratio of 90% or more (almost completely withered))	3 (Herbicidal ratio of 40% or higher and lower than 70%)
CON=C(C)CC1CC(OC(=O)COc2ccccc2)=C(c2c(C)cc(C)cc2OC)C1=O (stereo not drawn) [6-091]	5 (Herbicidal ratio of 90% or more (almost completely withered))	5 (Herbicidal ratio of 90% or more (almost completely withered))	3 (Herbicidal ratio of 40% or higher and lower than 70%)	4 (Herbicidal ratio of 70% or higher and lower than 90%)	4 (Herbicidal ratio of 70% or higher and lower than 90%)	5 (Herbicidal ratio of 90% or more (almost completely withered))	5 (Herbicidal ratio of 90% or more (almost completely withered))	2 (Herbicidal ratio of 20% or higher and lower than 40%)	5 (Herbicidal ratio of 90% or more (almost completely withered))	5 (Herbicidal ratio of 90% or more (almost completely withered))	4 (Herbicidal ratio of 70% or higher and lower than 90%)	5 (Herbicidal ratio of 90% or more (almost completely withered))	5 (Herbicidal ratio of 90% or more (almost completely withered))
CON=C(C)CC1CC(OS(=O)(=O)N(C)C)=C(c2c(C)cc(C)cc2OC)C1=O (stereo not drawn) [6-095]	4 (Herbicidal ratio of 70% or higher and lower than 90%)	3 (Herbicidal ratio of 40% or higher and lower than 70%)	2 (Herbicidal ratio of 20% or higher and lower than 40%)	0 (Herbicidal ratio of 5% or lower (almost no effect))	4 (Herbicidal ratio of 70% or higher and lower than 90%)	5 (Herbicidal ratio of 90% or more (almost completely withered))	5 (Herbicidal ratio of 90% or more (almost completely withered))	0 (Herbicidal ratio of 5% or lower (almost no effect))	5 (Herbicidal ratio of 90% or more (almost completely withered))	5 (Herbicidal ratio of 90% or more (almost completely withered))	3 (Herbicidal ratio of 40% or higher and lower than 70%)	5 (Herbicidal ratio of 90% or more (almost completely withered))	4 (Herbicidal ratio of 70% or higher and lower than 90%)
